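These data come from cells grown in 96-well plates and exposed to compound for 48 hours at five concentrations. Definition used: TGI = concentration required for complete inhibition of growth.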
Assays:
Experiment in all cases: DTP human tumour cell line panel, 48 h
[1] = test system: 786-0 renal
[2] = test system: A498 renal
[3] = test system: A549 NSCLC
[4] = test system: ACHN renal
[5] = test system: CAKI-1 renal
[6] = test system: CCRF-CEM leukemia
[7] = test system: COLO 205 colon
[8] = test system: DU-145 prostate
[9] = test system: EKVX NSCLC
[10] = test system: HCC-2998 colon
[11] = test system: HCT-116 colon
[12] = test system: HCT-15 colon
[13] = test system: HL-60(TB) leukemia
[14] = test system: HOP-62 NSCLC
[15] = test system: HOP-92 NSCLC
[16] = test system: HS 578T breast
[17] = test system: HT29 colon
[18] = test system: IGROV1 ovarian
[19] = test system: K-562 leukemia
[20] = test system: KM12 colon
[21] = test system: LOX IMVI melanoma
[22] = test system: M14 melanoma
[23] = test system: MALME-3M melanoma
[24] = test system: MCF7 breast
[25] = test system: MDA-MB-231 breast
[26] = test system: MDA-MB-435
[27] = test system: MDA-N
[28] = test system: MOLT-4 leukemia
[29] = test system: NCI-H226 lung
[30] = test system: NCI-H23 lung
[31] = test system: NCI-H460 lung
[32] = test system: NCI-H522 lung
[33] = test system: NCI/ADR-RES ovarian
[34] = test system: OVCAR-3 ovarian
[35] = test system: OVCAR-4 ovarian
[36] = test system: OVCAR-5 ovarian
[37] = test system: OVCAR-8 ovarian
[38] = test system: PC-3 prostate
[39] = test system: RPMI-8226 leukemia
[40] = test system: RXF 393 renal
[41] = test system: SF-268 CNS
[42] = test system: SF-295 CNS
[43] = test system: SF-539 CNS
[44] = test system: SK-MEL-2 melanoma
[45] = test system: SK-MEL-28 melanoma
[46] = test system: SK-MEL-5 melanoma
[47] = test system: SK-OV-3 ovarian
[48] = test system: SN12C renal
[49] = test system: SNB-19 CNS
[50] = test system: SNB-75 CNS
[51] = test system: SR leukemia
[52] = test system: SW-620 colon
[53] = test system: TK-10 renal
[54] = test system: U251 CNS
[55] = test system: UACC-257 melanoma
[56] = test system: UACC-62 melanoma
[57] = test system: T-47D breast
[58] = test system: UO-31 renal

CC[C@@H](CCCCC1CC[C@H]2CC(=O)C[C@@H]12)OC (some centres undefined)
TGI [1]: > 100 µM | TGI [2]: > 100 µM | TGI [3]: > 100 µM | TGI [4]: > 100 µM | TGI [5]: > 100 µM | TGI [6]: > 100 µM | TGI [7]: > 100 µM | TGI [8]: > 100 µM | TGI [9]: > 100 µM | TGI [10]: > 100 µM | TGI [11]: > 100 µM | TGI [12]: > 100 µM | TGI [13]: > 100 µM | TGI [14]: > 100 µM | TGI [15]: > 100 µM | TGI [16]: > 100 µM | TGI [17]: > 100 µM | TGI [18]: > 100 µM | TGI [19]: 80.1 µM | TGI [20]: > 100 µM | TGI [21]: > 100 µM | TGI [22]: > 100 µM | TGI [23]: > 100 µM | TGI [24]: > 100 µM | TGI [25]: > 100 µM | TGI [26]: > 100 µM | TGI [27]: > 100 µM | TGI [28]: > 100 µM | TGI [29]: > 100 µM | TGI [30]: > 100 µM | TGI [31]: > 100 µM | TGI [32]: > 100 µM | TGI [33]: > 100 µM | TGI [34]: > 100 µM | TGI [35]: > 100 µM | TGI [36]: > 100 µM | TGI [37]: > 100 µM | TGI [38]: > 100 µM | TGI [39]: > 100 µM | TGI [40]: > 100 µM | TGI [41]: > 100 µM | TGI [42]: > 100 µM | TGI [43]: > 100 µM | TGI [44]: > 100 µM | TGI [45]: > 100 µM | TGI [46]: > 100 µM | TGI [47]: > 100 µM | TGI [48]: > 100 µM | TGI [49]: > 100 µM | TGI [50]: > 100 µM | TGI [51]: > 100 µM | TGI [52]: > 100 µM | TGI [53]: > 100 µM | TGI [54]: > 100 µM | TGI [55]: > 100 µM | TGI [56]: > 100 µM

CC(C)(C)OC(=O)N1NC(c2ccccc2)CC1c1ccccc1 (centres undefined)
TGI [1]: > 100 µM | TGI [2]: 74.4 µM | TGI [3]: 32.9 µM | TGI [4]: 68.6 µM | TGI [5]: > 100 µM | TGI [6]: 71.5 µM | TGI [7]: 41.2 µM | TGI [8]: > 100 µM | TGI [9]: > 100 µM | TGI [10]: > 100 µM | TGI [11]: > 100 µM | TGI [12]: 60.1 µM | TGI [14]: > 100 µM | TGI [15]: > 100 µM | TGI [16]: > 100 µM | TGI [17]: > 100 µM | TGI [19]: > 100 µM | TGI [20]: 41.9 µM | TGI [22]: 58.8 µM | TGI [24]: 61 µM | TGI [26]: 65.3 µM | TGI [27]: > 100 µM | TGI [28]: > 100 µM | TGI [29]: 88.2 µM | TGI [30]: 40.4 µM | TGI [31]: > 100 µM | TGI [32]: > 100 µM | TGI [33]: 47.9 µM | TGI [34]: > 100 µM | TGI [36]: > 100 µM | TGI [37]: > 100 µM | TGI [39]: > 100 µM | TGI [40]: 58.4 µM | TGI [41]: > 100 µM | TGI [42]: > 100 µM | TGI [43]: > 100 µM | TGI [46]: 45.5 µM | TGI [47]: > 100 µM | TGI [48]: > 100 µM | TGI [50]: 76.7 µM | TGI [51]: > 100 µM | TGI [52]: > 100 µM | TGI [57]: 56.2 µM | TGI [53]: > 100 µM | TGI [55]: > 100 µM | TGI [56]: 88.1 µM | TGI [58]: 53.2 µM

CCOC(=O)c1sc2c(c1OC(=O)c1cc(OC)c(OC)c(OC)c1)c(=O)n(-c1ccccc1)c(=S)n2-c1ccccc1
TGI [1]: > 100 µM | TGI [2]: > 100 µM | TGI [3]: > 100 µM | TGI [4]: > 100 µM | TGI [5]: > 100 µM | TGI [6]: > 100 µM | TGI [7]: > 100 µM | TGI [8]: > 100 µM | TGI [9]: > 100 µM | TGI [10]: > 100 µM | TGI [11]: > 100 µM | TGI [12]: > 100 µM | TGI [13]: > 100 µM | TGI [14]: > 100 µM | TGI [15]: 95.3 µM | TGI [16]: > 100 µM | TGI [17]: > 100 µM | TGI [18]: > 100 µM | TGI [19]: > 100 µM | TGI [20]: > 100 µM | TGI [21]: > 100 µM | TGI [22]: > 100 µM | TGI [23]: > 100 µM | TGI [24]: > 100 µM | TGI [25]: > 100 µM | TGI [26]: > 100 µM | TGI [27]: > 100 µM | TGI [28]: > 100 µM | TGI [29]: > 100 µM | TGI [30]: > 100 µM | TGI [31]: > 100 µM | TGI [32]: 63.1 µM | TGI [33]: > 100 µM | TGI [34]: > 100 µM | TGI [35]: > 100 µM | TGI [36]: > 100 µM | TGI [37]: > 100 µM | TGI [38]: > 100 µM | TGI [39]: > 100 µM | TGI [40]: > 100 µM | TGI [41]: > 100 µM | TGI [42]: > 100 µM | TGI [43]: > 100 µM | TGI [45]: > 100 µM | TGI [46]: > 100 µM | TGI [47]: > 100 µM | TGI [48]: > 100 µM | TGI [49]: > 100 µM | TGI [50]: > 100 µM | TGI [52]: > 100 µM | TGI [57]: > 100 µM | TGI [53]: > 100 µM | TGI [54]: > 100 µM | TGI [55]: > 100 µM | TGI [56]: > 100 µM

C=C1C(=O)OC2C1CCC(C)C1(O)C=CC(=O)C21C (centres undefined)
TGI [1]: > 10 µM | TGI [2]: > 10 µM | TGI [3]: > 10 µM | TGI [4]: > 10 µM | TGI [6]: > 10 µM | TGI [7]: > 10 µM | TGI [9]: > 10 µM | TGI [10]: > 10 µM | TGI [11]: > 10 µM | TGI [12]: > 10 µM | TGI [13]: 9.5 µM | TGI [14]: > 10 µM | TGI [15]: > 10 µM | TGI [16]: > 10 µM | TGI [17]: > 10 µM | TGI [18]: > 10 µM | TGI [19]: > 10 µM | TGI [20]: > 10 µM | TGI [21]: > 10 µM | TGI [23]: > 10 µM | TGI [24]: > 10 µM | TGI [26]: > 10 µM | TGI [27]: > 10 µM | TGI [28]: > 10 µM | TGI [29]: > 10 µM | TGI [30]: > 10 µM | TGI [31]: > 10 µM | TGI [33]: > 10 µM | TGI [34]: > 10 µM | TGI [35]: > 10 µM | TGI [37]: > 10 µM | TGI [38]: > 10 µM | TGI [39]: > 10 µM | TGI [40]: > 10 µM | TGI [41]: > 10 µM | TGI [42]: > 10 µM | TGI [43]: > 10 µM | TGI [44]: > 10 µM | TGI [45]: > 10 µM | TGI [46]: > 10 µM | TGI [47]: > 10 µM | TGI [48]: > 10 µM | TGI [49]: > 10 µM | TGI [50]: > 10 µM | TGI [51]: > 10 µM | TGI [52]: > 10 µM | TGI [57]: > 10 µM | TGI [53]: > 10 µM | TGI [54]: > 10 µM | TGI [56]: > 10 µM | TGI [58]: > 10 µM

Reference: PubChem BioAssay (NCI)
